From US9657033B2, “Tetrahydronaphthyridine and related bicyclic compounds for inhibition of RORγ activity and the treatment of disease” (Merck Sharp & Dohme Corp., priority 2012, dated 2017)

Assays:
[1] = target: T1, RORγ-LBD (Homo sapiens (Human), UniProt P51449); test: RORγ-Ligand Binding Domain (LBD) TR-FRET Assay Protocol II; assay type: biochemical; details: purified RORγ-LBD, SRC1 peptide, overnight at 4° C.
Description: Part II—Procedures for RORγ-Ligand Binding Domain TR-FRET Assay Protocol II
HIS-tagged RORγ-LBD protein was expressed in SF9 cells using a baculovirus expression system. The RORγ-LBD protein was purified by […]. Separately, SF9 cells not expressing recombinant protein were lysed in TBS buffer (25 mM Tris, pH 8.0, 150 mM NaCl) under sonication. The lysate was added to the purified RORγ-LBD in a volume equivalent of 0.75 μL lysate (from 30,000 SF9 cells) per 75 femtomol of RORγ-LBD protein. The resulting mixture was diluted in assay buffer (50 mM Tris pH 7.0, 50 mM KCl, 1 mM EDTA, 0.1 mM DTT, 0.01% BSA) to obtain RORγ-LBD protein at a final concentration of 3 nM.
Compounds to be tested were injected to the assay plate using Acoustic Droplet Ejection technology by Echo 550 liquid handler (Labcyte, Calif.).
A stock of biotinylated-LXXLL peptide from coactivator SRC1 (Biotin-[…]) was prepared in assay buffer and added to each well (100 nM final concentration). A solution of Europium tagged anti-HIS antibody (1.25 nM final concentration) and APC-conjugated streptavidin (8 nM final concentration) were also added to each well.
The final assay mixture was incubated overnight at 4° C., and the fluorescence signal was measured on an Envision plate reader: (Excitation filter=340 nm; APC emission=665 nm; Europium emission=615 nm; dichroic mirror=D400/D630; delay time=100 μs, integration time=200 μs). The EC50 value for test compounds was calculated from the quotient of the fluorescence signal at 665 nm divided by the fluorescence signal at 615 nm

[2] = target: T1, RORγ-LBD; test: RORγ-Ligand Binding Domain (LBD) TR-FRET Assay Protocol I; assay type: biochemical; details: for EC50: RORγ-LBD lysate from SF9 cells, SRC1-2 peptide; for RORγ inhibition: Protocol I, assay measuring EC50 values less than or equal to 10 μM
Description: Part I—Procedures for RORγ-Ligand Binding Domain TR-FRET Assay Protocol I
Recombinant,HIS-tagged RORγ-LBD was expressed in SF9 cells using a baculovirus expression system. Cells were lysed and the lysate was used as a source for RORγ-LBD for the assay. A 1:80 dilution of RORγ-LBD lysate in assay buffer (25 mM HEPES pH 7.0, 100 mM NaCl, 0.01% Tween, 0.1% BSA) was prepared and 5 μL was added to each well (RORγ-LBD final concentration ˜3 nM). Control wells received lysate from SF9 cells not expressing RORγ-LBD.
Compounds to be tested were diluted to 100× final test concentration in DMSO and further diluted to 4× final test concentration using assay buffer to provide the test compound mixture. An aliquot (5 μL) of the test compound mixture was added to each well.
A 4× stock of biotinylated-LXXLL peptide from SRC1-2 (Biotin-[…]) was prepared in assay buffer and a 5 μL aliquot added to each well (450 nM final concentration). A 4× solution of europium tagged anti-HIS antibody (2 nM final concentration) and APC conjugated streptavidin (60 nM final concentration) were prepared and a 5 μL aliquot added to each well.
The final assay mixture was incubated for 4 hours to overnight, and the fluorescence signal was measured on an Envision plate reader: (Excitation filter=340 nm; APC emission=665 nm; Europium emission=615 nm; dichroic mirror=D400/D630; delay time=100 μs, integration time=200 μs).
EC50 values for test compounds were calculated from the quotient of the fluorescence signal at 665 nm divided by the fluorescence signal at 615 nm using GraphPad Prism software

T1 sequence (P51449 269-508): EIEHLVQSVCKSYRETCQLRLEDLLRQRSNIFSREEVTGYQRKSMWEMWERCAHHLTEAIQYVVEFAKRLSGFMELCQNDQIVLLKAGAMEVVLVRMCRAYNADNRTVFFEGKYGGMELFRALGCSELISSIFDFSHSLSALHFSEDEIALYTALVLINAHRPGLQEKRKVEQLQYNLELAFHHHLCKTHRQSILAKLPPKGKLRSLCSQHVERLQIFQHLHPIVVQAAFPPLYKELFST

| Structure (SMILES) | EC50 [1] | EC50 [2] | RORγ inhibition [2] |
| --- | --- | --- | --- |
| O=C(Nc1cnc2cnn(S(=O)(=O)c3cccc(C(F)(F)F)c3)c2c1)c1c(F)cccc1Cl [Compound 1, 2-chloro-6-fluoro-N-[1-(3-trifluoromethylbenzenesulfonyl)-1H-pyrazolo[4,3-b]pyridin-6-yl]benzamide] | 25 nM | 1880 nM |  |
| O=C(Nc1cc2c(cn1)cnn2S(=O)(=O)c1ccc(F)cc1)c1c(F)cccc1Cl [Compound 2, 2-chloro-6-fluoro-N-[1-(4-fluorobenzenesulfonyl)-1H-pyrazolo-[4,3-c]pyridin-6-yl]benzamide] |  | 2400 nM |  |
| N#Cc1cccc(S(=O)(=O)n2ncc3ncc(NC(=O)c4c(F)cccc4Cl)cc32)c1 [Compound 3] |  | 48000 nM | did not provide measurable RORγ inhibition |
| O=C(Nc1cc2c(cn1)cnn2S(=O)(=O)c1ccc(F)cc1)c1c(F)cccc1F [Compound 4] |  | 50000 nM | did not provide measurable RORγ inhibition |
| O=C(Nc1cc2c(cn1)cnn2S(=O)(=O)c1ccc(F)cc1)c1c(Cl)cccc1Cl [Compound 5] |  | 2610 nM |  |
| O=C(Nc1cc2c(cn1)cnn2S(=O)(=O)c1ccc(F)cc1)c1c(Cl)cccc1C(F)(F)F [Compound 6] |  | 2410 nM |  |
| O=C(Nc1cc2c(cn1)cnn2S(=O)(=O)c1cccc(Cl)c1)c1c(F)cccc1Cl [Compound 7] |  | 6440 nM |  |
| O=C(Nc1cc2c(cn1)cnn2S(=O)(=O)c1cccc(OC(F)F)c1)c1c(F)cccc1Cl [Compound 8] |  | 1060 nM |  |
| CC(C)(C)c1cccc(S(=O)(=O)n2ncc3cnc(NC(=O)c4c(F)cccc4Cl)cc32)c1 [Compound 9] |  | 3520 nM |  |
| O=C(Nc1cc2c(cn1)cnn2S(=O)(=O)c1cccc(C(F)(F)F)c1)c1c(F)cccc1Cl [Compound 10] | 4330 nM | 3620 nM |  |
| Cc1nn(C(F)F)cc1S(=O)(=O)n1ncc2cnc(NC(=O)c3c(F)cccc3Cl)cc21 [Compound 11] | 324 nM | 447 nM |  |
| CC1COc2ncc(NC(=O)c3c(F)cccc3Cl)cc2N1S(=O)(=O)c1ccc(F)cc1 (stereo not drawn) [Compound 12, 2-chloro-6-fluoro-N-[1-(4-fluorobenzenesulfonyl)-2-methyl-2,3-dihydro-1H-pyrido[2,3-b][1,4]oxazin-7-yl]benzamide] | 66 nM | 250 nM |  |
| O=C(Nc1cnc2c(c1)N(S(=O)(=O)c1ccc(F)cc1)CCO2)c1c(F)cccc1Cl [Compound 13, 2-chloro-6-fluoro-N-[1-(4-fluorobenzenesulfonyl)-2,3-dihydro-1H-pyrido[2,3-b][1,4]oxazin-7-yl]benzamide] |  | 174 nM |  |
| Cc1cccc(S(=O)(=O)N2C[C@H](C)Oc3ncc(NC(=O)c4c(F)cccc4Cl)cc32)c1 [Compound 14, (S)-2-chloro-6-fluoro-N-(3-methyl-1-(m-tolylsulfonyl)-2,3-dihydro-1H-pyrido[2,3-b][1,4]oxazin-7-yl)benzamide] | 22 nM | 166 nM |  |
| CC1COc2ncc(NC(=O)c3c(Cl)cccc3C(F)(F)F)cc2N1S(=O)(=O)c1ccc(F)cc1 (stereo not drawn) [Compound 19] |  | 20 nM |  |
| N#Cc1cccc(S(=O)(=O)N2CCOc3ncc(NC(=O)c4c(F)cccc4Cl)cc32)c1 [Compound 21] |  | 200 nM |  |

| Structure (SMILES) | EC50 [1] | EC50 [2] | RORγ inhibition [2] |
| --- | --- | --- | --- |
| O=C(Nc1cnc2c(c1)N(S(=O)(=O)c1ccc(Cl)cc1)CCO2)c1c(F)cccc1Cl [Compound 22] |  | 90 nM |  |
| O=C(Nc1cnc2c(c1)N(S(=O)(=O)c1ccc(F)c(F)c1)CCO2)c1c(F)cccc1Cl [Compound 23] |  | 100 nM |  |
| O=C(Nc1cnc2c(c1)N(S(=O)(=O)c1cccc(C(F)(F)F)c1)C[C@@H](N1CCCC1=O)C2)c1c(Cl)cccc1Cl [Compound 81] | 35 nM |  |  |
| O=C(Nc1cnc2c(c1)N(S(=O)(=O)c1cccc(C(F)(F)F)c1)C[C@H](N1CCCC1=O)C2)c1c(Cl)cccc1Cl [Compound 82] | 12 nM |  |  |
| O=C(Nc1cnc2c(c1)N(S(=O)(=O)c1cccc(Cl)c1)C[C@H](CN1C(=O)COC1=O)O2)c1c(Cl)cccc1Cl [Compound 85] | 20 nM |  |  |
| CN1CC(=O)N(C[C@H]2CN(S(=O)(=O)c3cccc(Cl)c3)c3cc(NC(=O)c4c(Cl)cccc4Cl)cnc3O2)C1=O [Compound 86, (S)-2,6-dichloro-N-(1-((3-chlorophenyl)sulfonyl)-3-((3-methyl-2,5-dioxoimidazolidin-1-yl)methyl)-2,3-dihydro-1H-pyrido[2,3-b][1,4]oxazin-7-yl)benzamide] | 10 nM |  |  |
| CN1CCN(C[C@H]2CN(S(=O)(=O)c3cccc(Cl)c3)c3cc(NC(=O)c4c(Cl)cccc4Cl)cnc3O2)CC1=O [Compound 87, (S)-2,6-dichloro-N-(1-((3-chlorophenyl)sulfonyl)-3-((4-methyl-3-oxopiperazin-1-yl)methyl)-2,3-dihydro-1H-pyrido[2,3-b][1,4]oxazin-7-yl)benzamide] | 52 nM |  |  |
| CN(C)C[C@H]1CN(S(=O)(=O)c2cccc(Cl)c2)c2cc(NC(=O)c3c(Cl)cccc3Cl)cnc2O1 [Compound 88] | 42 nM |  |  |
| O=C(Nc1cnc2c(c1)N(S(=O)(=O)c1cccc(Cl)c1)C[C@H](CN1CC[C@@H](O)C1)O2)c1c(Cl)cccc1Cl [Compound 89] | 32 nM |  |  |
| O=C(Nc1cnc2c(c1)N(S(=O)(=O)c1cccc(Cl)c1)C[C@H](CN1CCOCC1)O2)c1c(Cl)cccc1Cl [Compound 90] | 30 nM |  |  |
| CN1CCN(C[C@H]2CN(S(=O)(=O)c3cccc(Cl)c3)c3cc(NC(=O)c4c(Cl)cccc4Cl)cnc3O2)CC1 [Compound 91] | 1330 nM |  |  |
| Cc1nn(C(F)F)cc1S(=O)(=O)N1C[C@H](CO)Cc2ncc(NC(=O)[C@@H](C)C(C)(C)C)cc21 [Compound 92, (S)-N-((R)-5-((1-(difluoromethyl)-3-methyl-1H-pyrazol-4-yl)sulfonyl)-7-(hydroxymethyl)-5,6,7,8-tetrahydro-1,5-naphthyridin-3-yl)-2,3,3-trimethylbutanamide] | 10000 nM |  |  |
| Cc1cccc(S(=O)(=O)N2CC(CO)Cc3ncc(NC(=O)c4c(Cl)cccc4Cl)cc32)c1 (stereo not drawn) [Compound 94, 2,6-dichloro-N-(7-(hydroxymethyl)-5-(m-tolylsulfonyl)-5,6,7,8-tetrahydro-1,5-naphthyridin-3-yl)benzamide] | 20 nM |  |  |
| Cc1nn(C(F)F)cc1S(=O)(=O)N1C[C@H](CN2CC[C@@H](O)C2)Cc2ncc(NC(=O)[C@@H](C)C(C)(C)C)cc21 [Compound 95, (S)-N-((S)-5-((1-(difluoromethyl)-3-methyl-1H-pyrazol-4-yl)sulfonyl)-7-(((R)-3-hydroxypyrrolidin-1-yl)methyl)-5,6,7,8-tetrahydro-1,5-naphthyridin-3-yl)-2,3,3-trimethylbutanamide] | 4100 nM |  |  |
| Cc1nn(C(F)F)cc1S(=O)(=O)N1C[C@@H](CN2CC[C@@H](O)C2)Cc2ncc(NC(=O)[C@@H](C)C(C)(C)C)cc21 [Compound 96, (S)-N-((R)-5-((1-(difluoromethyl)-3-methyl-1H-pyrazol-4-yl)sulfonyl)-7-(((R)-3-hydroxypyrrolidin-1-yl)methyl)-5,6,7,8-tetrahydro-1,5-naphthyridin-3-yl)-2,3,3-trimethylbutanamide] | 168 nM |  |  |
| O=C(Nc1cnc2c(c1)N(S(=O)(=O)c1cccc(C(F)(F)F)c1)C[C@@H](N1CCOC1=O)C2)c1c(Cl)cccc1Cl [Compound 97, (S)-2,6-dichloro-N-(7-(2-oxooxazolidin-3-yl)-5-((3-(trifluoromethyl)phenyl)sulfonyl)-5,6,7,8-tetrahydro-1,5-naphthyridin-3-yl)benzamide] | 42 nM |  |  |
